One compound from patent US10172963B2, “Method of binding a CSE1L tumor marker in a tumor of an animal” (priority 2011, dated 2019) can be followed below.

Type in all cases: cell-based
Assay [1] concerns B16-Ras cells. The assay can be described thus: Levels of microvesicular MMP-2 in microvesicles from conditioned media (immunoblot). The following applies: 50 μM, 48 h, serum-starved B16-Ras cells. Here is the method:
(§1) Cells were washed with phosphate-buffered saline (PBS) and lysed in ice-cold radioimmunoprecipitation assay (RIPA) buffer [25 Mm Tris-HCl (pH 7.2), 0.1% SDS, 0.1% Triton X-100, 1% sodium deoxycholate, 150 mM NaCl, 1 mM EDTA, 1 mM sodium orthovanadate, 1 mM phenylmethylsulfonyl fluoride, 10 μg/ml aprotinin, 5 μg/ml leupeptin, 25 mM β-glycerophosphate, 5 mM sodium orthovanadate, and 5 mM sodium fluoride]. The protein concentrations were determined with a BCA protein assay kit (Pierce, Rockford, Ill., USA). Fifty micrograms of each protein sample was loaded onto SDS-polyacrylamide gel. Proteins were transferred to nitrocellulose membranes (Amersham Pharmacia, Buckinghamshire, UK). The membrane was blocked in blocking buffer [1% bovine serum albumin (BSA), 50 mM Tris-HCl (pH 7.6), 150 mM NaCl, and 0.1% Tween-20] at room temperature for 1 h. The blots were then incubated with primary antibodies at 4° C. overnight followed by incubation with secondary antibodies conjugated to horseradish peroxidase for 1 h. The levels of protein were detected by Forte Western HRP Substrate (Millipore Corp., Billerica, Mass., USA) according to the manufacturer's instructions.
Microvesicles were prepared from conditioned media or sera by size exclusion chromatography and ultracentrifugation. […] Fractions (1 ml) were collected, and the protein content was monitored by measuring absorbance at 280 nm. […]
In general terms: In western blotting, separated proteins are transferred to a membrane and probed.

Assay [2] relates to B16-Ras cells. Kind of assay: CSE1L in cell lysates and conditioned media by immunoblotting. The following applies: 50 μM, 24 h. Here is the method:
as §1, with “The membrane was blocked in blocking buffer [1% bovine serum albumin (BSA), 50 mM Tris-HCl (pH 7.6), 150 mM NaCl, and 0.1% Tween-20] at room temperature for 1 h. The blots were then incubated with primary antibodies at 4° C. overnight followed by incubation with secondary antibodies conjugated to horseradish peroxidase for 1 h.” left out
For Immunoblotting with biotin-conjugated antibodies, the biotin-conjugated antibody was prepared by biotinylating anti-CSE1L antibodies using the Biotin Labeling Kit-NH2 kit according to the manufacturer's protocol (Dojindo Laboratories, Kumamoto, Japan). The Immunoblot was then reacted with horseradish peroxidase (HRP)-conjugated streptavidin and the levels of protein were detected by Forte Western HRP Substrate. […]

The subject of assay [3] is B16-Ras cells. Kind of assay: Threonine phosphorylated CSE1L by immunoprecipitation and immunoblotting. The settings on record: 50 μM, 24 h. Here is the method: Cells grown on plastic dishes were washed with PBS and incubated in immunoprecipitation lysis buffer [10 mM Tris-HCl (pH 7.4), 10 mM EDTA, 0.4% deoxycholic acid, 0.5% Triton X-100, 1 mM phenylmethylsulfonyl fluoride, 10 μg/ml aprotinin, 5 μg/ml leupeptin, 25 mM β-glycerophosphate, 5 mM sodium orthovanadate, and 5 mM sodium fluoride] at 4° C. for 20 min. Cells were scraped and disrupted by pipetting. The cell lysate was cleared of insoluble materials by centrifugation at 12,000 g for 10 min at 4° C., and the protein concentrations were determined with a BCA protein assay kit (Pierce). […]
(A) Levels of cellular threonine phosphorylated CSE1L in B16-dEV cells and B16-Ras cells treated with DMSO or 50 μM PD98059 for 24 h were analyzed by immunoprecipitation with anti-CSE1L antibodies and immunoblotting with HRP-conjugated anti-phosphothreonine antibodies. […] (B) Levels of secretory threonine phosphorylated CSE1L in cell number-standardized conditioned media harvested from serum-starved B16-dEV cells and B16-Ras cells treated with DMSO or 50 μM PD98059 for 24 h were analyzed by immunoprecipitation with anti-CSE1L antibodies and immunoblotting with HRP-conjugated anti-phosphothreonine antibodies. […] (D) The levels of CSE1L in the pool of cancer sera and normal sera were analyzed by immunoblotting with anti-CSE1L antibodies (clone 24).

For assay [4], the system named is B16-Ras cells. Kind of assay: Gelatin zymography assay of microvesicular MMP-2. The following applies: 50 μM PD98059, or stable CSE1L shRNA transfection; microvesicles from conditioned media of serum-starved cells. On the procedure:
Microvesicles harvested from cell number-standardized conditioned media were resolved using 10% SDS-PAGE containing 1 mg/ml gelatin. The gel was washed twice with 2.5% Triton X-100 for 30 min to remove SDS, and subsequently incubated in buffer containing 50 mM Tris-HCl (pH 7.6), 200 mM NaCl, and 10 mM CaCl2 at 37° C. for 24 h. The gel was stained with Comassie blue R-250 (0.125% Comassie blue R-250, 50% methanol, 10% acetic acid) for 30 min and destained with destaining solution (20% methanol, 10% acetic acid, 70% ddH2O) until the clear bands were visualized.
(A) Gelatin zymographic activities of MMP-2 in microvesicles harvested form the cell number-standardized conditioned media of serum-starved B16-dEV, B16-Ras, B16-CSE1L, and B16-Ras/anti-CSE1L cells treated with or without DMSO or 50 μM PD98059 for 48 h as indicated. (B) The in vitro invasion abilities of B16-dEV, B16-Ras, B16-CSE1L, and B16-Ras/anti-CSE1L cells analyzed by Matrigel-based invasion assays. The mean±SD numbers of invasive cells were 109.4±12.6, 406.8±23.9, 311.25±32.4, and 46.75±8.7 cells per field for B16-dEV, B16-CSE1L, B16-Ras, and B16-Ras/anti-CSE1L cells, respectively.

The mark [5] stands for this setting: conditioned media of serum-starved B16-Ras cells.

On to `COc1cccc(-c2cc(=O)c3ccccc3o2)c1N` [PD98059], for which the “Effect on v-H-ras-induced increase in microvesicular MMP-2” value with B16-Ras cells [1] was “attenuated v-H-ras-induced increase in MMP-2 in microvesicles”. In addition, the “Effect on CSE1L expression in cells” value in the assay on B16-Ras cells [2] (cell lysates) is listed as “did not obviously affect CSE1L expression in cells”. For the same compound, in the assay with B16-Ras cells [2] (setting [5]), the “Effect on v-H-ras-induced increase in CSE1L secretion” value is reported as “attenuated v-H-ras-induced increase in CSE1L secretion”. Also, in the assay with B16-Ras cells [3] (cell lysates of B16-Ras cells), the “Effect on v-H-ras-increased threonine phosphorylation of cellular CSE1L” value is recorded as “inhibited v-H-ras-increased threonine phosphorylation in CSE1L”. For the same compound, the “Effect on v-H-ras-increased secretion of threonine phosphorylated CSE1L” value in the assay on B16-Ras cells [3] (setting [5]) is recorded as “inhibited v-H-ras-increased secretion of threonine phosphorylated CSE1L”. For the same compound, in the assay with B16-Ras cells [4], the “Effect on v-H-ras-induced increase in zymographic activity of microvesicular MMP-2” value was “attenuated the v-H-ras-induced increase in the zymographic activity of microvesicular MMP-2”.
